The values that follow come from patent publication US11518758B2, “Heteroarylaminopyrimidine amide autophagy inhibitors and methods of use thereof” (Deciphera Pharmaceuticals, LLC, priority 2019, dated 2022).

The target of one experiment is T1, ULK1 kinase (Homo sapiens, UniProt O75385).
T1 construct: purchased Eurofins 14-959
T1 sequence (O75385 with tags, fused parts or gaps): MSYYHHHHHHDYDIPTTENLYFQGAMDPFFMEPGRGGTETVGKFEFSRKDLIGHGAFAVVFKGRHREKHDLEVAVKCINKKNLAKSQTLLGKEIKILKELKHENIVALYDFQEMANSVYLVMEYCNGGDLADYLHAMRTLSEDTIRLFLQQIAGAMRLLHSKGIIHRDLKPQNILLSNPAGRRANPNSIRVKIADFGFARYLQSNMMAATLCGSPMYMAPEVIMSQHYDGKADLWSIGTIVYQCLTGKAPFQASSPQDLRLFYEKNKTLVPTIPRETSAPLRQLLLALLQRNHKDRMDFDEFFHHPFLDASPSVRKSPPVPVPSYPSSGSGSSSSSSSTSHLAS
Description: Biochemical assay for ULK1.2 (coupled pyruvate kinase/lactate dehydrogenase assay). The settings on record: 19 nM ULK1 (Eurofins), myelin basic protein, 1 mM ATP. The procedure, abridged:
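NADH-coupled PK/LDH read-out at 340 nm, run with 19 nM ULK1, 0.25 mg/mL myelin basic protein and 1 mM ATP. Buffer was 100 mM Tris pH 7.5 with 15 mM MgCl2 and 1% DMSO final. Monitoring was continuous for 6 hours at 30° C; rates from the 2-3 h window were converted to percent inhibition and fitted to a four-parameter curve for IC50.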

The test system of experiment [1] is phospho-Serine 318 ATG13 (pATG13) in HCT-116 cells. Description: pATG13 levels of mutant KRas HCT-116 cells after treatment with ULK inhibitors in combination with trametinib (ELISA). It counts as cell-based, human. The method, then: Example 179. pATG13 Levels of Mutant KRas HCT-116 Cells after Treatment with ULK Inhibitors in Combination with Trametinib
HCT-116 human colon cancer cells (10000 cells/well) were added to a 384-well tissue-culture treated plate in 50 μL of pre-warmed DMEM medium supplemented with 10% characterized fetal bovine serum (Invitrogen, Carlsbad, Calif.), 100 units/mL penicillin G, and 100 μg/mL streptomycin and allowed to grow overnight at 37° C., 5% CO2, and 95% humidity. The following day, 10 μL of media containing trametinib or DMSO as a control was added to wells. The final concentration of trametinib in wells was 250 nM. A dose response of a test compound (0.6 μL per well) was added. DMSO (0.6 μL) was added to control wells. The plate was briefly shaken to mix wells and then incubated at 37° C. overnight. The next day, the media was aspirated and cells were washed with Dulbecco's Phosphate Buffered Saline (Gibco). Cells were lysed using MPER lysis buffer (Pierce, Rockford, Ill.) containing Halt Phosphatase and Protease Inhibitors (Pierce, Rockford, Ill.) and Phosphatase inhibitor cocktail 2 (Sigma, St. Louis, Mo.) at 4° C. for 10 minutes with shaking.
(§1) Cellular levels of phospho-Serine 318 ATG13 (pATG13) were measured via an ELISA method. Total ATG13 Antibody (Cell Signaling Cat #13273) was used to coat the wells. The plate was incubated at 4° C. overnight and washed with ELISA wash buffer (Biolegend Cat #421601). The wells were then blocked with assay diluent (Biolegend Cat #421203) for 1 hour at room temperature. Plate wells were washed with ELISA wash buffer. Cell lysate was added to wells and incubated at room temperature for 2 hours. Plate wells were washed with ELISA wash buffer. Biotinylated pS318-ATG13 antibody (Rockland Immunochemicals Cat #600-401-C49) was diluted in assay diluent and added to each well and incubated at room temperature for 1 hour. Plate wells were washed with ELISA wash buffer. Streptavidin linked to horseradish peroxidase (Thermo Fisher Cat #21140) was diluted in assay diluent and added to each well and incubated at room temperature for 1 hour. Plate wells were washed with ELISA wash buffer. High sensitivity TMB substrate (Biolegend Cat #421101) was added to each well and incubated at room temperature for 20 minutes. The reaction was stopped with 2N Sulfuric Acid. The plate was analyzed at on a plate reader measuring absorbance at 450 nm and 540 nm (background). Signal was calculated by first subtracting the background absorbance at 540 nm from the absorbance at 450 nm for each well. Next, the background corrected absorbance at 450 nm from blank wells was subtracted from test wells. Data was compared to control wells to determine % ATG13 phosphorylation. GraphPad Prism was used to calculate IC50 values.

The test system of experiment [2] is phospho-Serine 318 ATG13 (pATG13) in A375 cells. Briefly: pATG13 levels of mutant BRAF A375 cells after treatment with ULK inhibitors in combination with trametinib (ELISA). It is filed as cell-based, human. The method, then: Example 180. pATG13 Levels of Mutant BRAF A375 Cells after Treatment with ULK Inhibitors in Combination with Trametinib
A375 human malignant melanoma cancer cells (20000 cells/well) were added to a 96-well tissue-culture treated plate in 100 μL of pre-warmed DMEM medium supplemented with 10% characterized fetal bovine serum (Invitrogen, Carlsbad, Calif.), 100 units/mL penicillin G, and 100 μg/mL streptomycin and allowed to grow overnight at 37° C., 5% CO2, and 95% humidity. The following day, 100 μL of media containing trametinib or DMSO as a control was added to wells. The final concentration of trametinib in wells was 250 nM. A dose response of a test compound (0.5 μL per well) was added. DMSO (0.5 μL) was added to control wells. The plate was briefly shaken to mix wells and then incubated at 37° C. overnight. The next day, the media was aspirated and cells were washed with Dulbecco's Phosphate Buffered Saline (Gibco). Cells were lysed using MPER lysis buffer (Pierce, Rockford, Ill.) containing Halt Phosphatase and Protease Inhibitors (Pierce, Rockford, Ill.) and Phosphatase inhibitor cocktail 2 (Sigma, St. Louis, Mo.) at 4° C. for 10 minutes with shaking.
as §1

For the compound `CC(C)N1CCC(n2cc(Nc3ncc(C(F)(F)F)c(NCCCN4CCCCC4=O)n3)cn2)CC1` [Example 6], the half-maximal inhibitory concentration (IC50) at ULK1 kinase lay in the range of 1 to 25 nM; in experiment [1] it was 100 to 300 nM.

For the compound `Cc1nn(C2CCN(C)CC2)cc1Nc1ncc(C(F)(F)F)c(NCCCN2CCCCC2=O)n1` [Example 8], the IC50 against ULK1 kinase was in the range of 1 to 25 nM; in experiment [2], 10 to 100 nM.

Regarding `Cc1nn(C2CCN(C(C)C)CC2)cc1Nc1ncc(C(F)(F)F)c(NCCCN2CCCCC2=O)n1` [Example 15], the values for the IC50 (on ULK1 kinase; in experiment [2]; in experiment [1]) were 25 to 100 nM, 10 to 100 nM and 10 to 100 nM, respectively.

In the case of `Cc1nn([C@@H]2CCN(C)C2)cc1Nc1ncc(C(F)(F)F)c(NCCCN2CCCCC2=O)n1` [Example 18], the IC50 is 1 to 25 nM against ULK1 kinase and 10 to 100 nM in experiment [2].

Consider `Cc1nn(CCN(C)C)cc1Nc1ncc(C(F)(F)F)c(NCCCN2CCCCC2=O)n1` [Example 21], for which the IC50 against ULK1 kinase is 25 to 100 nM; in experiment [1], 100 to 300 nM.

As to `CN(C)CCn1cc(Nc2ncc(C(F)(F)F)c(NCCCN3CCCCC3=O)n2)cn1` [Example 32], the IC50 on ULK1 kinase was 25 to 100 nM; in experiment [1] it was 10 to 100 nM.

For `CCc1nn(C2CCN(C)CC2)cc1Nc1ncc(Br)c(NCCCN2CCCCC2=O)n1` [Example 53], the 50% inhibitory concentration (IC50) on ULK1 kinase was 25 to 100 nM; in experiment [2], 100 to 300 nM; in experiment [1], 10 to 100 nM.

With `Cc1nn([C@H]2CCN(C)C2)cc1Nc1ncc(Br)c(NCCCN2CCCCC2=O)n1` [Example 61], the IC50 against ULK1 kinase lay in the range of 25 to 100 nM; in experiment [2], 10 to 100 nM; in experiment [1], 10 to 100 nM.

For `CCN1CC[C@H](n2cc(Nc3ncc(Br)c(NCCCN4CCCCC4=O)n3)c(C)n2)C1` [Example 64], at ULK1 kinase, the IC50 fell in the range of 25 to 100 nM.

In the case of `Cc1nn(C2CCN(C(C)C)CC2)cc1Nc1ncc(C(F)(F)F)c(NCCCN2CCCOC2=O)n1` [Example 68], the IC50 on ULK1 kinase lay in the range of 25 to 100 nM; in experiment [2], 100 to 300 nM; in experiment [1] it was 10 to 100 nM.

Consider `Cc1nn(C2CCN(C)CC2)cc1Nc1ncc(C(F)(F)F)c(NCCCN2CCCCCC2=O)n1` [Example 79], for which the IC50 is 1 to 25 nM on ULK1 kinase and 10 to 100 nM in experiment [1].

In the case of `Cc1nn(CCCN2CCOCC2)cc1Nc1ncc(C(F)(F)F)c(NCCCN2CCCCCC2=O)n1` [Example 100], the IC50 fell in the range of 25 to 100 nM against ULK1 kinase and 100 to 300 nM in experiment [1].

Turning to `Cc1nn(C2CCN(C)CC2)cc1Nc1ncc(C(F)(F)F)c(NCCCN2CCCOCC2=O)n1` [Example 102], the 50% inhibitory concentration (IC50) at ULK1 kinase was 1 to 25 nM; in experiment [1], 10 to 100 nM.

On to `Cc1nn(C2CCN(C)CC2)cc1Nc1ncc(Cl)c(NCCCN2CCCOCC2=O)n1` [Example 105], for which the IC50 lay within 25 to 100 nM against ULK1 kinase and 100 to 300 nM in experiment [1].

On to `Cc1nn([C@@H]2CCN(C)C2)cc1Nc1ncc(C(F)(F)F)c(NCCCN2CCCOCC2=O)n1` [Example 106], for which the results for the concentration for half-maximal inhibition (IC50) (against ULK1 kinase; in experiment [1]) were 25 to 100 nM and 10 to 100 nM, respectively.

As to `CCN1CCC(n2cc(Nc3ncc(C(F)(F)F)c(NCCCN4CCCOCC4=O)n3)c(C)n2)CC1` [Example 107], the 50% inhibitory concentration (IC50) is 25 to 100 nM against ULK1 kinase and 10 to 100 nM in experiment [1].

`Cc1nn(C2CCN(C(C)C)CC2)cc1Nc1ncc(C(F)(F)F)c(NCCCN2CCCOCC2=O)n1` [Example 108]: the half-maximal inhibitory concentration (IC50) on ULK1 kinase lay within 25 to 100 nM; in experiment [1], 100 to 300 nM.

In the case of `Cc1nn(C2CCN(C)CC2)cc1Nc1ncc(C(F)(F)F)c(NCCCN2CCOCCC2=O)n1` [Example 127], the IC50 on ULK1 kinase was in the range of 1 to 25 nM; in experiment [2], 10 to 100 nM; in experiment [1], 100 to 300 nM.

For the compound `CCN1CCC(n2cc(Nc3ncc(C(F)(F)F)c(NCCCN4CCOCCC4=O)n3)c(C)n2)CC1` [Example 130], the half-maximal inhibitory concentration (IC50) against ULK1 kinase lay in the range of 25 to 100 nM; in experiment [1], 10 to 100 nM.

Turning to `Cc1nn(C2CCN(C(C)C)CC2)cc1Nc1ncc(C(F)(F)F)c(NCCCN2CCOCCC2=O)n1` [Example 131], the IC50 against ULK1 kinase was 25 to 100 nM; in experiment [1], 100 to 300 nM.
